≈ marks a conversion by molar mass, not a printed value.
Experiments:
[1] = Cmax in Sprague-Dawley rat at 21.3 mg/kg, po measured over 24 hrs by LC-MS analysis; assay type: ADME, organism-based; parameters: route oral, dose 21.3 mg/kg, time >24; details: in vivo
[2] = Intrinsic clearance in human pooled liver microsomes assessed per mg protein at 1 uM by LC-MS analysis; assay type: ADME, Microsome; details: microsomes, 1 µM
[3] = Solubility of compound in 0.1 N HCl measured after 5 to 6 hrs by HPLC-UV based analysis; assay type: physicochemical; details: buffer; time 5-6 hrs
[4] = target: T1, Cytochrome P450 2B6 (Homo sapiens, UniProt P20813); assay: Inhibition of CYP2B6 in human liver microsomes using isoform-specific probe substrates in presence of NADPH-generating system by LC-MS analysis; assay type: ADME
T1 sequence (P20813 whole entry): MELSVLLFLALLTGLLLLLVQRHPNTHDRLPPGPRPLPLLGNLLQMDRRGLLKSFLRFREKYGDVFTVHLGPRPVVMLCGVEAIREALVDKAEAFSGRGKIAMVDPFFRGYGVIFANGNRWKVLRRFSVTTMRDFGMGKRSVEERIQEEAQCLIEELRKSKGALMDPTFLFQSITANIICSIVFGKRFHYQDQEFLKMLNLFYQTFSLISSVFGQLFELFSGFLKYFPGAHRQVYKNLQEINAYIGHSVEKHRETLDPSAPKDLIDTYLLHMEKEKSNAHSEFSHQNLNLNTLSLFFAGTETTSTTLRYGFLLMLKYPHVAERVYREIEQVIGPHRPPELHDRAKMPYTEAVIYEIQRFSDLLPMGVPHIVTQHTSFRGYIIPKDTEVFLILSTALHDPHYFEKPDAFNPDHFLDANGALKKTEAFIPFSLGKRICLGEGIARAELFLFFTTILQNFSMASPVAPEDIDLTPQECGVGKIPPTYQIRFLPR

[5] = target: Cytochrome P450 2D6 (Homo sapiens, UniProt P10635); assay: Inhibition of CYP2D6 in human liver microsomes using isoform-specific probe substrates in presence of NADPH-generating system by LC-MS analysis; assay type: ADME
Chain of Cytochrome P450 2D6 (P10635 whole entry, canonical isoform): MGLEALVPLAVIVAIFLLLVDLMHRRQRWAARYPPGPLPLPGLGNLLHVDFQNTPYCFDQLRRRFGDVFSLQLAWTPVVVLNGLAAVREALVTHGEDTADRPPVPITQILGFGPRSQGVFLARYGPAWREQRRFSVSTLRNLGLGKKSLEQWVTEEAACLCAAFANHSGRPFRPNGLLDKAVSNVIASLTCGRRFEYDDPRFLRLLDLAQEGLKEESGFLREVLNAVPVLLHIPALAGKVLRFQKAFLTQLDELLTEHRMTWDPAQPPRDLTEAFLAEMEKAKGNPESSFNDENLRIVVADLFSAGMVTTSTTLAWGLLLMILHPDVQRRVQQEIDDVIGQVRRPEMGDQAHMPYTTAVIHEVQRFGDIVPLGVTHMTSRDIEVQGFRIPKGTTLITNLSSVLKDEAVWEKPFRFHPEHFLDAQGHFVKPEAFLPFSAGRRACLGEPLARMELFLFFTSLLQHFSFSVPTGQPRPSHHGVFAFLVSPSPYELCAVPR

[6] = target: Cytochrome P450 3A4 (Homo sapiens, UniProt P08684); assay: Inhibition of CYP3A4 in human liver microsomes using isoform-specific probe substrates in presence of NADPH-generating system by LC-MS analysis; assay type: ADME; details: read-out: IC50
Chain of Cytochrome P450 3A4 (P08684 whole entry, canonical isoform): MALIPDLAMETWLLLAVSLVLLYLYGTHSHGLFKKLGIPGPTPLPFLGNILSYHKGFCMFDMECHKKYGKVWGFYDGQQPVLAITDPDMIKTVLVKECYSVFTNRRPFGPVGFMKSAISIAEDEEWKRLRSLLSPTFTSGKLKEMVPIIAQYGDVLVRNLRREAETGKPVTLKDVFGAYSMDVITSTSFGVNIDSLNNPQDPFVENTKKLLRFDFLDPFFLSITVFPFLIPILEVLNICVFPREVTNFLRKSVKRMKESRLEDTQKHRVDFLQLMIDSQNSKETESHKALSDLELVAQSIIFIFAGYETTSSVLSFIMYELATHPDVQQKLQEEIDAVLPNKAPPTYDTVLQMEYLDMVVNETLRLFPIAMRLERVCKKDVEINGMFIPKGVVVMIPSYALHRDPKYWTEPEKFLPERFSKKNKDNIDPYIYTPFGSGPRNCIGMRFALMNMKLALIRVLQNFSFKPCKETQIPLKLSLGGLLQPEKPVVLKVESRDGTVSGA

[7] = AUC (0 to infinity) in Swiss mouse at 20 mg/kg, po administered as single dose via gavage measured over 24 hrs by LC-MS analysis; assay type: ADME, organism-based; parameters: route oral, dose 20 mg/kg, time >24; details: in vivo
[8] = Apparent half-life in Sprague-Dawley rat at 1.8 mg/kg, iv administered as infusion for 10 mins by LC-MS analysis; assay type: ADME, organism-based; details: in vivo, read-out: t1/2(app) (converted)
[9] = AUC (0 to infinity) in Sprague-Dawley rat at 1.8 mg/kg, iv administered as infusion for 10 mins by LC-MS analysis; assay type: ADME, organism-based; parameters: route intravenous, time 10 min, dose 1.8 mg/kg; details: in vivo
[10] = Volume of distribution at steady state in Sprague-Dawley rat at 1.8 mg/kg, iv administered as infusion for 10 mins by LC-MS analysis; assay type: ADME, organism-based; details: in vivo
[11] = Unbound volume of distribution at steady state Sprague-Dawley in rat at 1.8 mg/kg, iv administered as infusion for 10 mins by LC-MS analysis; assay type: ADME, organism-based; details: in vivo
[12] = Unbound Cmax in Sprague-Dawley rat at 21.3 mg/kg, po measured over 24 hrs by LC-MS analysis; assay type: ADME, organism-based; details: in vivo
[13] = Unbound AUC (0 to infinity) in Sprague-Dawley rat at 21.3 mg/kg, po measured over 24 hrs by LC-MS analysis; assay type: ADME, organism-based; details: in vivo
[14] = Oral bioavailability in Sprague-Dawley rat at 21.3 mg/kg measured over 24 hrs by LC-MS analysis; assay type: ADME, organism-based; details: in vivo
[15] = Solubility of compound in FeSSIF at pH 5.8 measured after 5 to 6 hrs by HPLC-UV based analysis; assay type: physicochemical; details: simulated gi fluid, time 5-6 hrs
[16] = Protein binding in Sprague-Dawley rat plasma at 1.8 mg/kg, iv administered as infusion for 10 mins by LC-MS analysis; assay type: ADME, organism-based; details: read-out: PPB (converted)
[17] = target: Dihydroorotate dehydrogenase (quinone), mitochondrial (Mus musculus, UniProt O35435)
Chain of Dihydroorotate dehydrogenase (quinone), mitochondrial (O35435 whole entry, canonical isoform): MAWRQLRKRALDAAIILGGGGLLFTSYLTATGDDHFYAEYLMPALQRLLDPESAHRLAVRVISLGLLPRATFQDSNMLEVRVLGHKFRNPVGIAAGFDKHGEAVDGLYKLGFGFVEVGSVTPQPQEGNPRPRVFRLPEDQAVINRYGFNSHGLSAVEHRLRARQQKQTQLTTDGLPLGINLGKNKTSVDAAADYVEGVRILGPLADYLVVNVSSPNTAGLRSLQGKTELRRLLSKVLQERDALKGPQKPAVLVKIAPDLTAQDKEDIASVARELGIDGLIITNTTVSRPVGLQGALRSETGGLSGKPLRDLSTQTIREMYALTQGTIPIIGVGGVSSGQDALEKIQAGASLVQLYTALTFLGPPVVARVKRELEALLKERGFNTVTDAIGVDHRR

[18] = target: T2, Cytochrome P450 2C8 (Homo sapiens, UniProt P10632); assay: Inhibition of CYP2C8 in human liver microsomes using isoform-specific probe substrates in presence of NADPH-generating system by LC-MS analysis; assay type: ADME
T2 sequence (P10632 whole entry): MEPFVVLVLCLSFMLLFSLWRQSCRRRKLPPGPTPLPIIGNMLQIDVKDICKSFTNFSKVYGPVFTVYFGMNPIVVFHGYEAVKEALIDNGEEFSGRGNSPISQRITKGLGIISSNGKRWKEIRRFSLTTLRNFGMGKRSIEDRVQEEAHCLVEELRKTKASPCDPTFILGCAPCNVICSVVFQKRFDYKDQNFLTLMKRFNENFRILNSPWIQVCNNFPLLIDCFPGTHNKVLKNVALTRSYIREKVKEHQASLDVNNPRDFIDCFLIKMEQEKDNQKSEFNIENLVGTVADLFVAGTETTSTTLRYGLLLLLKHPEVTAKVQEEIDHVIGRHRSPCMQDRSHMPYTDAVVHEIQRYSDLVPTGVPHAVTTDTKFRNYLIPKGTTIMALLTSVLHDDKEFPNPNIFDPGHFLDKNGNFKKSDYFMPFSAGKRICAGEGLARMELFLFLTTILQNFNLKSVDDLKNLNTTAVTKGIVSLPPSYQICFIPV

[19] = AUC (0 to infinity) in Sprague-Dawley rat at […], iv administered as infusion for 10 mins by LC-MS analysis; assay type: ADME, organism-based; parameters: route intravenous, time 10 min, dose 1.6 mg/kg; details: in vivo
[20] = Unbound clearance in Sprague-Dawley rat at […], iv administered as infusion for 10 mins by LC-MS analysis; assay type: ADME, organism-based; details: in vivo, dose 1.6 mg/kg
[21] = Volume of distribution at steady state in Sprague-Dawley rat at […], iv administered as infusion for 10 mins by LC-MS analysis; assay type: ADME, organism-based; details: in vivo, dose 1.6 mg/kg
[22] = Unbound volume of distribution at steady state in Sprague-Dawley rat at […], iv administered as infusion for 10 mins by LC-MS analysis; assay type: ADME, organism-based; details: in vivo, dose 1.6 mg/kg
[23] = Cmax in Sprague-Dawley rat at 17.5 mg/kg, po measured over 24 hrs by LC-MS analysis; assay type: ADME, organism-based; parameters: route oral, dose 17.5 mg/kg, time >24; details: in vivo
[24] = Unbound Cmax in Sprague-Dawley rat at 17.5 mg/kg, po measured over 24 hrs by LC-MS analysis; assay type: ADME, organism-based; details: in vivo
[25] = Unbound AUC (0 to infinity) in Sprague-Dawley rat at 17.5 mg/kg, po measured over 24 hrs by LC-MS analysis; assay type: ADME, organism-based; details: in vivo
[26] = Oral bioavailability in Sprague-Dawley rat at 17.5 mg/kg measured over 24 hrs by LC-MS analysis; assay type: ADME, organism-based; details: in vivo
[27] = Inhibition of yeast DHODH expressed in Plasmodium falciparum; parameters: species or system Saccharomyces cerevisiae
[28] = Protein binding in Sprague-Dawley rat plasma at […], iv administered as infusion for 10 mins by LC-MS analysis; assay type: ADME, organism-based; details: dose 1.6 mg/kg, read-out: PPB (converted)
[29] = target: Voltage-gated inwardly rectifying potassium channel KCNH2 (Homo sapiens, UniProt Q12809)
Chain of Voltage-gated inwardly rectifying potassium channel KCNH2 (Q12809 whole entry): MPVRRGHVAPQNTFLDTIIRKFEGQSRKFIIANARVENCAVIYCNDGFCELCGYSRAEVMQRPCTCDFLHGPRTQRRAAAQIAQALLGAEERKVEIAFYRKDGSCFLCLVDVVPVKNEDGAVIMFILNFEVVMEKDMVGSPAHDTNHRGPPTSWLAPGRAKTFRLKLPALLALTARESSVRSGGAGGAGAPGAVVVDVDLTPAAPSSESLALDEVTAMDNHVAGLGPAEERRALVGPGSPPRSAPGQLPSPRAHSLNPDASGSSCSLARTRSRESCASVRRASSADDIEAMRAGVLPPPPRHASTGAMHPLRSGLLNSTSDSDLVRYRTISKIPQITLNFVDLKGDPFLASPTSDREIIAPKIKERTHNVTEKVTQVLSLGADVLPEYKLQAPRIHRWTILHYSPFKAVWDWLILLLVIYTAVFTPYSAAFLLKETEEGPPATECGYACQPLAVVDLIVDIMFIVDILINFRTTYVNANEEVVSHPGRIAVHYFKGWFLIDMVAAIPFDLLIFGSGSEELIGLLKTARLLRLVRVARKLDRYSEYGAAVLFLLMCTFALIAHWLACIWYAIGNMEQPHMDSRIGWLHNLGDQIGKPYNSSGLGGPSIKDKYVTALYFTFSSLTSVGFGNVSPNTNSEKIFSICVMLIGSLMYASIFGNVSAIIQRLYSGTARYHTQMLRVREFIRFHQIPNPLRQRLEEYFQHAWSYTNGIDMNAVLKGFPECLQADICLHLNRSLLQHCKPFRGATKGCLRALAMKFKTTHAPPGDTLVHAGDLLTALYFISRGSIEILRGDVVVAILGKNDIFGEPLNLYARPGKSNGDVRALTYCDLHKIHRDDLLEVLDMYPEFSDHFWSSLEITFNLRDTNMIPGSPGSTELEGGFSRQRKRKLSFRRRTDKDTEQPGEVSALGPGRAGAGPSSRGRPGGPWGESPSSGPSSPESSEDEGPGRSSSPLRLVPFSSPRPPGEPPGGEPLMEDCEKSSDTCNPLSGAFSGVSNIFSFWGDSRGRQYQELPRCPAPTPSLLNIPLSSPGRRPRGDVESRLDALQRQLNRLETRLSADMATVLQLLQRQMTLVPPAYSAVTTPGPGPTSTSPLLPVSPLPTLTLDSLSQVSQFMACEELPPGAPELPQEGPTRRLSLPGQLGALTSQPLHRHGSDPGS
Description: Inhibition of human ERG by patch clamp electrophysiology assay

## Cc1cc(NC2Cc3cc(F)c(F)cc3C2)n2nc(C(C)(F)F)nc2n1
[1]
  Cmax: 12.5 µM
[2]
  microsomal intrinsic clearance: < 7 µL/min
[3]
  solubility: 180 µg/mL (≈ 493 µM)
[4]
  IC50: > 20 µM
[5]
  IC50: 5.9 µM
[6]
  IC50: > 20 µM
[7]
  AUC: 169 µM·h
[8]
  half-life: 11.2 h
[9]
  AUC(0-inf): 27.1 µM·h
[10]
  Vdss: 2.7 L/kg
[11]
  fVdss: 47 L/kg
[12]
  fCmax: 0.72 µM
[13]
  fAUC: 11.7 µM·h
[14]
  bioavailability: 63%
[15]
  solubility: 65 µg/mL (≈ 178 µM)
[16]
  fraction unbound at 10 min: 0.058
[17]
  IC50: > 100 µM

## Cc1cc(N[C@H]2CCc3ccc(Cl)cc3C2)n2nc(C(C)(F)F)nc2n1
[2]
  microsomal intrinsic clearance: < 7 µL/min
[3]
  solubility: 105 µg/mL (≈ 278 µM)
[4]
  IC50: > 20 µM
[18]
  IC50: > 20 µM
[5]
  IC50: 2.7 µM
[6]
  IC50: > 20 µM
[7]
  AUC: 22.7 µM·h
[19]
  AUC: 3.5 µM·h
[20]
  CL free: 589 mL/min/kg
[21]
  Vdss: 6.7 L/kg
[22]
  fVdss: 186 L/kg
[23]
  Cmax: 3.3 µM
[24]
  fCmax: 0.12 µM
[25]
  fAUC: 0.89 µM·h
[26]
  bioavailability: 67%
[27]
  EC50: 8.6 µM
[28]
  fraction unbound at 10 min: 0.035
[17]
  IC50: > 100 µM
[29]
  IC50: 1.5 µM

— ChEMBL document CHEMBL4706474, “Tetrahydro-2-naphthyl and 2-Indanyl Triazolopyrimidines Targeting Plasmodium falciparum Dihydroorotate Dehydrogenase Display Potent and Selective Antimalarial Activity” (J Med Chem, 2016)
